Reference: patent US9688691B2, “Macrocyclic quinazole derivatives and their use as MTKI” (Janssen Pharmaceutica NV, priority 2004, dated 2017)

Experiments:
Assay type in all cases: biochemical
Fgr human = Fgr human (Homo sapiens, UniProt P09769); test: Kinase profiling, glass-fiber filter technology: Fgr; settings: test concentration of 10^−6 M; read-out: Fgr inhibition score
Procedure: (§1) The in vitro inhibition of a panel of kinases was assessed using the glass-fiber filter technology as described by Davies, S. P. et al., Biochem J. (2000), 351; p. 95-105.
(§2) In the glass-fiber filter technology the activity of the kinase of interest is measured using an appropriate substrate that is incubated with the aforementioned kinase protein in the presence of (^33P) radiolabeled ATP. (^33P) Phosporylation of the substrate is subsequently measured as radioactivity bound on a glassfiber-filter.
(§3) All kinases are pre-diluted to a 10× working concentration prior to addition into the assay. The composition of the dilution buffer for each kinase is detailed below.
(§4) All substrates are dissolved and diluted to working stocks in de-ionised water.
(§5) In a final reaction volume of 25 μl, Fgr human (5-10 mU) is incubated with 8 mM MOPS pH 7.0, 0.2 mM EDTA, 0.1 mg/ml poly(Glu, Tyr) 4:1, 10 mM MgAcetate and [γ-^33P-ATP] (specific activity approx. 500 cpm/pmol, concentration as required). The reaction is initiated by the addition of the MgATP mix. After incubation for 40 minutes at room temperature, the reaction is stopped by the addition of 5 μl of a 3% phosphoric acid solution. 10 μl of the reaction is then spotted onto a Filtermat A and washed three times for 5 minutes in 75 mM phosphoric acid and once in methanol prior to drying and scintillation counting.

Ret human = Ret human (Homo sapiens, UniProt P07949); test: Kinase profiling, glass-fiber filter technology: Ret; settings: test concentration of 10^−6 M; read-out: Ret inhibition score
Procedure: as §1, §2, §3, §4
as §5, with “Ret” for “Fgr”, “250 μM KKKSPGEYVNIEFG,” for “0.1 mg/ml poly(Glu, Tyr) 4:1,”, “P30 filtermat” for “Filtermat A”

Bmx (h) = biological target: T1, Bmx (h) (Homo sapiens, UniProt P51813); test: Kinase profiling, glass-fiber filter technology: Bmx; settings: test concentration of 10^−6 M; read-out: Bmx inhibition score
T1 sequence (P51813 1-675): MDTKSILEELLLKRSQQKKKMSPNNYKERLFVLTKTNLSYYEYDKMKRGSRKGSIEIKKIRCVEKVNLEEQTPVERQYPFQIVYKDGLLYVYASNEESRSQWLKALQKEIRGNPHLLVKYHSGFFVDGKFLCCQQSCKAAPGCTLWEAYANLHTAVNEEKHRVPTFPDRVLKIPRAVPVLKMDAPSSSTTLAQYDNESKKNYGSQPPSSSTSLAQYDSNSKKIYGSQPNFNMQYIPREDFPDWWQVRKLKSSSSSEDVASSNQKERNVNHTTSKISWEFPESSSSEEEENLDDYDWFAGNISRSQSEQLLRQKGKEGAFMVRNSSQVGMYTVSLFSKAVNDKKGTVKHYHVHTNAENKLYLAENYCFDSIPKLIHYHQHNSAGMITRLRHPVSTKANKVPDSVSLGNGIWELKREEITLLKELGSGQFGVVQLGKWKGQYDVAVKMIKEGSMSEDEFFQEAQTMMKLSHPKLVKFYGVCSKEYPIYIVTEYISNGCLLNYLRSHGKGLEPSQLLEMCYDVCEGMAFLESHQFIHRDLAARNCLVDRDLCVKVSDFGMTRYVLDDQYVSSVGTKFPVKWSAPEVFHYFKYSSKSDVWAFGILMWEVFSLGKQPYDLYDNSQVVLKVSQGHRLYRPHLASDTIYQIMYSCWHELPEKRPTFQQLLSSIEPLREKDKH
Procedure: as §1, §2, §3, §4
as §5, with “Bmx (h)” for “Fgr human”, “[γ-33P-ATP]” for “[γ-^33P-ATP]”

cSRC (h) = cSRC (h) (Homo sapiens, UniProt P12931); test: Kinase profiling, glass-fiber filter technology: cSRC; settings: test concentration of 10^−6 M; read-out: cSRC inhibition score
Procedure: as §1, §2, §3, §4
In a final reaction volume of 25 μl, cSRC (h) (5-10 mU) is incubated with 8 mM MOPS pH 7.0, 0.2 mM EDTA, 250 μM KVEKIGEGTYGVVYK (Cdc2 peptide), 10 mM MgAcetate and [γ-^33P-ATP] (specific activity approx. 500 cpm/pmol, concentration as required). The reaction is initiated by the addition of the MgATP mix. After incubation for 40 minutes at room temperature, the reaction is stopped by the addition of 5 μl of a 3% phosphoric acid solution.
10 μl of the reaction is then spotted onto a P30 filtermat and washed three times for 5 minutes in 75 mM phosphoric acid and once in methanol prior to drying and scintillation counting.

ErbB4 (h) = ErbB4 (h) (Homo sapiens, UniProt Q15303); test: Kinase profiling, glass-fiber filter technology: ErbB4; settings: test concentration of 10^−6 M; read-out: ErbB4 inhibition score
Procedure: as §1, §2, §3, §4
as §5, with “ErbB4 (h)” for “Fgr human”, “EDTA, 10 mM MnCl2,” for “EDTA,”, “[γ-33P-ATP]” for “[γ-^33P-ATP]”

Sequence of Fgr human (P09769 whole entry): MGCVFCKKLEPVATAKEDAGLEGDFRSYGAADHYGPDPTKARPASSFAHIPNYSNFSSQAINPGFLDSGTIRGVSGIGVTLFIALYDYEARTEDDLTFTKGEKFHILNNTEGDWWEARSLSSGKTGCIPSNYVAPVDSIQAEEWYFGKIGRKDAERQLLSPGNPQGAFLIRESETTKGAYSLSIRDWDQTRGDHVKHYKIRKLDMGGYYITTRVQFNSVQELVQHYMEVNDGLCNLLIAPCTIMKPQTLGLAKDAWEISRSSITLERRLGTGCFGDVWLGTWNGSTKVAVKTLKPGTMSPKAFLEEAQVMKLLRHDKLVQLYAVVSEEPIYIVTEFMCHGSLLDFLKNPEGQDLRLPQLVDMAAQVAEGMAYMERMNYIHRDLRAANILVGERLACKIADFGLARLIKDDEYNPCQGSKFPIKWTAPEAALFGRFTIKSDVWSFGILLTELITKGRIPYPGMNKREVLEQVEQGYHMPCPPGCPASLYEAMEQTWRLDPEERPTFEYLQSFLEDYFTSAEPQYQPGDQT
Sequence of ErbB4 (h) (Q15303 26-1308): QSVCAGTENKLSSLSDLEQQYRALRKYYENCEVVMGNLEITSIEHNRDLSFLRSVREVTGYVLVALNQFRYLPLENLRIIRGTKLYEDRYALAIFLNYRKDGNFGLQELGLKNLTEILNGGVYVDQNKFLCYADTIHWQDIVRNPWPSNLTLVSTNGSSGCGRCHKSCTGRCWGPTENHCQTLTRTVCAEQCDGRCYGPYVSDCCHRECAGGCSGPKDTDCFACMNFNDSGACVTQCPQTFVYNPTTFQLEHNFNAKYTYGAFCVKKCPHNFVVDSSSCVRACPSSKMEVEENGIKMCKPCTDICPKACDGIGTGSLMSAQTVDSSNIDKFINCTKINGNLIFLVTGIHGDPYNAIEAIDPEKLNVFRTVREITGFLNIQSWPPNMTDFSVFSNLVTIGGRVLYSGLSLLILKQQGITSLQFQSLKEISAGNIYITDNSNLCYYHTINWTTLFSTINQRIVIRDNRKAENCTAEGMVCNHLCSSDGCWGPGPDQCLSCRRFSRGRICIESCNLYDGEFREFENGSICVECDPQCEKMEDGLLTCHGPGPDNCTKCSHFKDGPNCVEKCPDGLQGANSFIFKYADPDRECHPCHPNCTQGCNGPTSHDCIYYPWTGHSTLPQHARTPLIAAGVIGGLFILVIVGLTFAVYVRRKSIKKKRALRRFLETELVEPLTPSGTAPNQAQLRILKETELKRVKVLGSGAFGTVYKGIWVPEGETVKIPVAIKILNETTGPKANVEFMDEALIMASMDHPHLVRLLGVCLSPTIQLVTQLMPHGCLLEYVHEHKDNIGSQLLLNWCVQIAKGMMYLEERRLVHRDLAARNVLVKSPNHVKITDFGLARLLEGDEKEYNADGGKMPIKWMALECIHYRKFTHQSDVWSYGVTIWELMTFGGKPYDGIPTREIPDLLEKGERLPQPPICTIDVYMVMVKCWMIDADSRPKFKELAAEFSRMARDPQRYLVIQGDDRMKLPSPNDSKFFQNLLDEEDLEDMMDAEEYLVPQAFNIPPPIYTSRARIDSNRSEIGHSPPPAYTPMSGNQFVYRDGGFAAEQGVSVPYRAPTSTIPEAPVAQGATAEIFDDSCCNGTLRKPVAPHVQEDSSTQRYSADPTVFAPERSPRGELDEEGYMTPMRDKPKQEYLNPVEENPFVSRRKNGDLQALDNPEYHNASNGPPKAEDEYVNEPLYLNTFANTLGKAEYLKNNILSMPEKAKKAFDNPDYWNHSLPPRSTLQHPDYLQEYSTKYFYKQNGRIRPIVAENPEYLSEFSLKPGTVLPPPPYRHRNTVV
Sequence of cSRC (h) (P12931 whole entry): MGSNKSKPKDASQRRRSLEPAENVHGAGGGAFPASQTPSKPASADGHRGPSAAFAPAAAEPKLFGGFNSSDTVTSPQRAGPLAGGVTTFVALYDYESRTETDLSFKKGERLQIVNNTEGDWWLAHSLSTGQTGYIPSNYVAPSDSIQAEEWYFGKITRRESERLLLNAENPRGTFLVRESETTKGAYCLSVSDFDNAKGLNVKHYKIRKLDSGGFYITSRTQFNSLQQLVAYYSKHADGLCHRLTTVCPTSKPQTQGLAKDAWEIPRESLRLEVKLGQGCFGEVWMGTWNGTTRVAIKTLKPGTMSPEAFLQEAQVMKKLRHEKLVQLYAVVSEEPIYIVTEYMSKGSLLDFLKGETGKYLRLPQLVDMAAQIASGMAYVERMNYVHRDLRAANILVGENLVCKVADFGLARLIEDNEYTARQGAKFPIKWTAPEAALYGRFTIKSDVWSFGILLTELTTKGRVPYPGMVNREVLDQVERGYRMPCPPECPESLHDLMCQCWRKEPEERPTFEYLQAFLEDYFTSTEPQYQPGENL
Sequence of Ret human (P07949 29-1114): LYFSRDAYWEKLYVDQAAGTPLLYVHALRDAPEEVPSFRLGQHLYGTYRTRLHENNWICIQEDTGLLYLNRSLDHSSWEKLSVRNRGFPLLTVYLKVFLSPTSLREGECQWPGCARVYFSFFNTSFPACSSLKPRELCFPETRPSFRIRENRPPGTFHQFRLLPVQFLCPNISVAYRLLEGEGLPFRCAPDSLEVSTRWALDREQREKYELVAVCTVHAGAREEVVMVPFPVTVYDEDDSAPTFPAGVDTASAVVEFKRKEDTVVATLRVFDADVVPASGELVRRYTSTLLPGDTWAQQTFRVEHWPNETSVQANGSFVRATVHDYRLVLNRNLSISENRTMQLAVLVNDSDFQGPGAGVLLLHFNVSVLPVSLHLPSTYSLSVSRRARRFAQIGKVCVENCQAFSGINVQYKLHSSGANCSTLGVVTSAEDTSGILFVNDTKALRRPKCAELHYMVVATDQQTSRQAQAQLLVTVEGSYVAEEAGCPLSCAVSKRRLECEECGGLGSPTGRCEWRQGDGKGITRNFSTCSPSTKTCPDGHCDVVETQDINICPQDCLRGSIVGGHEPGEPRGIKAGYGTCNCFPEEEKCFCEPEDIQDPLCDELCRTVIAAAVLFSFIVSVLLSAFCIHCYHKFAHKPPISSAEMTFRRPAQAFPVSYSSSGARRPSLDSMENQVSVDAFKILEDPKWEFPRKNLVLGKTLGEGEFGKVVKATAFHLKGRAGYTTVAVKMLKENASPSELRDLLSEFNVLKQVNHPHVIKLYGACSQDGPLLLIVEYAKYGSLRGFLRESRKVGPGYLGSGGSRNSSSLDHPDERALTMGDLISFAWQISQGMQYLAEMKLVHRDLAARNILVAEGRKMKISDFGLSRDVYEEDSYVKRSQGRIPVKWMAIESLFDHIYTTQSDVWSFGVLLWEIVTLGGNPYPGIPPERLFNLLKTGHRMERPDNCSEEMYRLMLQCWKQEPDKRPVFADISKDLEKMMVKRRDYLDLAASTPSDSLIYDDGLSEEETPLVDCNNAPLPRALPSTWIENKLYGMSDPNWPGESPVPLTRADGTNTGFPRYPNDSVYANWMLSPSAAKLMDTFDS

`CN1CCCCCOc2cc3c(ncnc3cc2OCCCN2CCS(=O)(=O)CC2)Nc2cc(Cl)c(F)cc2C1` [Compound 19] was tested, and the inhibition at 1 µM (Fgr human) was 60 to 80%, the inhibition at 1 µM (Ret human) was over 80% and the inhibition at 1 µM (Bmx (h)) was 60 to 80%. For the same compound, the inhibition at 1 µM (cSRC (h)) was over 80% and the inhibition at 1 µM (ErbB4 (h)) was 60 to 80%.
In the case of `CC(=O)NCCNCCCOc1cc2ncnc3c2cc1OCCCNC(=O)[C@H](C)N(C)Cc1cc(F)c(Cl)cc1N3` [Compound 4], the inhibition at 1 µM (Ret human) is reported as over 80%, the inhibition at 1 µM (Bmx (h)) is reported as 30 to 60% and the inhibition at 1 µM (cSRC (h)) is reported as over 80%. For the same compound, the inhibition at 1 µM (ErbB4 (h)) was 30 to 60%.
In the case of `COc1cc2ncnc3c2cc1OCCCN(CCN1CCOCC1)C(=O)CNC(=O)Cc1ccc(Cl)cc1N3` [Compound 15], the inhibition at 1 µM (Ret human) is reported as 10 to 30%, the inhibition at 1 µM (cSRC (h)) is reported as 30 to 60% and the inhibition at 1 µM (ErbB4 (h)) is reported as 10 to 30%.
`C#Cc1ccc2c(c1)Nc1ncnc3cc(OCCCNCCS(C)(=O)=O)c(cc13)OCCCCCN(C)C2` [Compound 20] was tested, and the inhibition at 1 µM (Fgr human) was over 80%, the inhibition at 1 µM (Ret human) was over 80% and the inhibition at 1 µM (Bmx (h)) was 60 to 80%. The inhibition at 1 µM (cSRC (h)) was over 80% and the inhibition at 1 µM (ErbB4 (h)) was over 80%.
For `CC(=O)NCCNCCCOc1cc2ncnc3c2cc1OCCCCCN(C)Cc1ccc(Br)cc1N3` [Compound 13], the inhibition at 1 µM (Fgr human) was over 80%, the inhibition at 1 µM (Ret human) was over 80% and the inhibition at 1 µM (Bmx (h)) was 60 to 80%. For the same compound, the inhibition at 1 µM (cSRC (h)) was over 80% and the inhibition at 1 µM (ErbB4 (h)) was over 80%.
In the case of `CN1CCCCCOc2cc3c(ncnc3cc2OCCCNCCS(C)(=O)=O)Nc2cc(Cl)c(F)cc2C1` [Compound 18], the inhibition at 1 µM (Bmx (h)) is reported as 30 to 60%, the inhibition at 1 µM (cSRC (h)) is reported as over 80% and the inhibition at 1 µM (ErbB4 (h)) is reported as over 80%.
Work on `CC(=O)N(CCO)CCCOc1cc2ncnc3c2cc1OCCCNC(=O)[C@H](C)N(C)Cc1cc(F)c(Cl)cc1N3` [Compound 5] yielded an inhibition at 1 µM (Fgr human) of 10 to 30%, an inhibition at 1 µM (Ret human) of 60 to 80% and an inhibition at 1 µM (Bmx (h)) of 30 to 60%. For the same compound, the inhibition at 1 µM (cSRC (h)) was over 80% and the inhibition at 1 µM (ErbB4 (h)) was 10 to 30%.
With `CN1CCCCCOc2cc3c(ncnc3cc2OCCCNC(=O)OC(C)(C)C)Nc2cc(Br)ccc2C1` [Compound 11] the inhibition at 1 µM (Fgr human) was 10 to 30%, the inhibition at 1 µM (Ret human) was over 80% and the inhibition at 1 µM (Bmx (h)) was 10 to 30%. For the same compound, the inhibition at 1 µM (cSRC (h)) was 60 to 80% and the inhibition at 1 µM (ErbB4 (h)) was 10 to 30%.
`CN1CCCCCOc2cc3c(ncnc3cc2OCCCNCCS(C)(=O)=O)Nc2cc(Br)ccc2C1` [Compound 14] gave an inhibition at 1 µM (Fgr human) of 60 to 80%, an inhibition at 1 µM (Ret human) of over 80% and an inhibition at 1 µM (Bmx (h)) of 30 to 60%. It also gave an inhibition at 1 µM (cSRC (h)) of over 80% and an inhibition at 1 µM (ErbB4 (h)) of over 80%.
`C[C@H]1C(=O)NCCCOc2cc3c(ncnc3cc2OCCCN2CCN(C(=O)OC(C)(C)C)CC2)Nc2cc(Cl)c(F)cc2CN1C` [Int. 16] gave an inhibition at 1 µM (Fgr human) of 10 to 30%, an inhibition at 1 µM (Ret human) of over 80% and an inhibition at 1 µM (Bmx (h)) of 30 to 60%. For the same compound, the inhibition at 1 µM (cSRC (h)) was over 80% and the inhibition at 1 µM (ErbB4 (h)) was 10 to 30%.
In the case of `COCCOCCOc1cc2ncnc3c2cc1OCCCCCN(C)Cc1ccc(Br)cc1N3` [Int. 43], the inhibition at 1 µM (Fgr human) is reported as 30 to 60%, the inhibition at 1 µM (Ret human) is reported as over 80% and the inhibition at 1 µM (cSRC (h)) is reported as over 80%. The inhibition at 1 µM (ErbB4 (h)) was 10 to 30%.
`CC(=O)OCCN(C)CCCOc1cc2ncnc3c2cc1OCCCNC(=O)[C@H](C)N(C)Cc1cc(F)c(Cl)cc1N3` [Compound 2] showed an inhibition at 1 µM (Fgr human) of 10 to 30%, an inhibition at 1 µM (Ret human) of over 80% and an inhibition at 1 µM (Bmx (h)) of 30 to 60%. For the same compound, the inhibition at 1 µM (cSRC (h)) was over 80% and the inhibition at 1 µM (ErbB4 (h)) was 30 to 60%.
`COc1cc2ncnc3c2cc1OCCCN(CCCN1CCOCC1)C(=O)[C@H](CC(C)C)NC(=O)Cc1ccc(Br)cc1N3` [Int. 25] showed an inhibition at 1 µM (Ret human) of 30 to 60%, an inhibition at 1 µM (cSRC (h)) of 30 to 60% and an inhibition at 1 µM (ErbB4 (h)) of 30 to 60%.
`CC(=O)NCCN1CCN(CCCOc2cc3ncnc4c3cc2OCCCNC(=O)[C@H](C)N(C)Cc2cc(F)c(Cl)cc2N4)CC1` [Compound 6] showed an inhibition at 1 µM (Bmx (h)) of 30 to 60%, an inhibition at 1 µM (cSRC (h)) of over 80% and an inhibition at 1 µM (ErbB4 (h)) of 60 to 80%.
With `CN1CCCCCOc2cc3c(ncnc3cc2OC[C@@H](O)CN2CCS(=O)(=O)CC2)Nc2cc(Br)ccc2C1` [Compound 12] the inhibition at 1 µM (Fgr human) was 60 to 80%, the inhibition at 1 µM (Ret human) was over 80% and the inhibition at 1 µM (Bmx (h)) was 30 to 60%. For the same compound, the inhibition at 1 µM (cSRC (h)) was over 80% and the inhibition at 1 µM (ErbB4 (h)) was 60 to 80%.
For `CN1CCCCCOc2cc3c(ncnc3cc2OC[C@H](O)CNCCOCCO)Nc2cc(Cl)c(F)cc2C1` [Compound 17], the inhibition at 1 µM (Bmx (h)) was 60 to 80%, the inhibition at 1 µM (cSRC (h)) was over 80% and the inhibition at 1 µM (ErbB4 (h)) was over 80%.
